Where two headings read alike, the source gives them in different places.

Data on 11 compounds can be found in PMC6273912, “Novel 5-Substituted 2-(Aylmethylthio)-4-chloro-N-(5-aryl-1,2,4-triazin-3-yl)benzenesulfonamides: Synthesis, Molecular Structure, Anticancer Activity, Apoptosis-Inducing Activity and Metabolic Stability” (Molecules, 2016).

One data set has as its system HCT-116, HeLa and MCF-7. Briefly: MTT cell viability assay, all tested cell lines together. As to conditions: Homo sapiens; average over HCT-116, HeLa and MCF-7; read-out: average IC50 against all tested cell lines. Type of data set: cell-based. The procedure: (§1) All chemicals, if not stated otherwise, were obtained from Sigma-Aldrich (St. Louis, MO, USA). The MCF-7 cell line was purchased from Cell Lines Services (Eppelheim, Germany), the HeLa and HCT-116 cell lines were obtained from the Department of Microbiology, Tumor and Cell Biology, Karolinska Institute (Stockholm, Sweden). Cells were cultured in Dulbecco’s modified Eagle’s medium (DMEM) supplemented with 10% fetal bovine serum, 2 mM glutamine, 100 units/mL penicillin, and 100 μg/mL streptomycin. Cultures were maintained in a humidified atmosphere with 5% CO2 at 37 °C in an incubator (HeraCell, Heraeus, Langenselbold, Germany).
(§2) Cell viability was determined using the MTT (3-(4,5-dimethylthiazol-2-yl)-2,5-diphenyl-tetrazoliumbromide) assay. Stock solutions of the studied compounds were prepared in 100% DMSO. […] Cells were seeded in 96-well plates at a density of 5 × 10^3 cells/well and treated for 72 h with the examined compounds in the concentration range 1–100 μM (1, 10, 25, 50 and 100 μM). Following treatment, MTT (0.5 mg/mL) was added to the medium and cells were further incubated for 2 h at 37 °C. Cells were lysed with DMSO and the absorbance of the formazan solution was measured at 550 nm with a plate reader (1420 multilabel counter, Victor, Jügesheim, Germany). […] The experiment was performed in triplicate. Values are expressed as the mean ± SD of at least three independent experiments.
On the technique in general: Tetrazolium assays rely on reduction of a dye to a coloured formazan, in cell work by metabolically active cells.

The next data set has as its system HCT-116 (colon cancer). Briefly: MTT cell viability assay, HCT-116. As to conditions: 72 h of incubation, mean ± SD. Type of data set: cell-based, human. The protocol: as §1, §2
A further data set relates to MCF-7 (breast cancer). Briefly: MTT cell viability assay, MCF-7. Type of data set: cell-based, human. As to conditions: Homo sapiens, MCF7, 72 h of incubation, mean ± SD. The procedure: as §1, §2
For another data set, the system named is HeLa (cervical cancer). Nature of the data set: MTT cell viability assay, HeLa. Type of data set: cell-based, human. Particulars: for IC50: 72 h of incubation, mean ± SD. The procedure:
as §1, §2

Data set [1] is described as follows: Metabolic stability with human liver microsomes and NADPH. Type of data set: in vitro ADME. Particulars: liver microsomes. The procedure: Stock solutions of studied compounds were prepared at concentration of 10 mM in DMSO. […] Incubation mixture contained 10 μM of a studied derivative, 1 mM of NADPH (Sigma-Aldrich) and 0.5 mg/mL of human liver microsomes (HLM, Sigma-Aldrich) in potassium phosphate buffer (0.1 M, pH 7.4). Incubation was carried out in thermostat at 37 °C and started by addition of studied compound. 50 μL samples were taken after 5, 15, 30, 45 and 60 min. Enzymatic reaction was terminated by the addition of the equal volume of ice-cold acetonitrile containing 10 μM of alprazolam (Sigma-Aldrich) serving as internal standard (IS). Control incubations were performed without NADPH to assess chemical instability. After collection, samples were immediately centrifuged (10 min, 10,000 rpm) and resulted supernatant was directly analyzed or kept in −80 °C until LC-MS analysis. Natural logarithm of a compound over IS peak area ratio was plotted versus incubation time. Metabolic half-time (t1/2) was calculated from the slope of the linear regression, as reported in [48].
LC-MS analysis was performed on an Agilent 1260 system coupled to SingleQuad 6120 mass spectrometer (Agilent Technologies, Santa Clara, CA, USA). Ascentis Express ES-CN (2.1 mm × 100 mm, 2.7 μm, Supelco Analytical, Bellefonte, PA, USA) was used in reversed-phase mode with gradient elution starting with 50% of phase A (10 mM ammonium formate in water) and 50% of phase B (10 mM ammonium formate in acetonitrile-water mixture, 95:5 v/v). […] Total analysis time was 10 min at 25 °C, flow rate was 0.4 mL/min and the injection volume was 20 μL. The mass spectrometer was equipped with electrospray ion source and operated in positive ionization. Mass analyzer was set individually to each compound to detect [M + H]^+ pseudomolecular ions. MSD parameters of the ESI source were as follows: nebulizer pressure 50 psig (N2), drying gas […] (N2), drying gas temperature 300 °C, capillary voltage 3.5 kV, fragmentor voltage 100 V.
A general note: Microsomes from liver hold many membrane-bound enzymes, among them those of drug oxidation.

In data set [2] the test system is HeLa as well as HCT-116 cells. Briefly: MTT cell viability assay, HeLa and HCT-116. Type of data set: cell-based, human. Particulars: summary over the two cell lines; for IC50: Homo sapiens, read-out: IC50 toward HeLa as well as HCT-116. The protocol:
as §1, §2

The mark [3] stands for this setting: pH 7.4, human liver microsomes 0.5 mg/mL, 1 mM NADPH, 10 μM compound, pH 7.4, 37 °C, up to 60 min, read-out: In Vitro Metabolic Half-Life t1/2.

In the case of `COc1ccc(-c2cnnc(NS(=O)(=O)c3cc(C)c(Cl)cc3SCc3cccc4ccccc34)n2)cc1` [Compound 38, 4-Chloro-N-[5-(4-methoxyphenyl)-1,2,4-triazin-3-yl]-5-methyl-2-[(naphthalene-1-yl)methylthio]benzene-sulfonamide], the concentration for half-maximal inhibition (IC50) (as a rule, the midpoint of a concentration-inhibition curve) is 50 µM with HCT-116, HeLa and MCF-7; 38 ± 2 µM in the data set on HCT-116 (colon cancer); 36 to 38 µM in the data set on HCT-116 (colon cancer) (Homo sapiens, HCT-116, 72 h); 69 ± 1 µM with MCF-7 (breast cancer); 42 ± 1 µM with HeLa (cervical cancer); 34 to 42 µM with HeLa (cervical cancer) (Homo sapiens, 72 h). The half-life at 10 μM in data set [1] (setting [3]) is less than 5 min.

Turning to `COc1ccc(-c2cnnc(NS(=O)(=O)c3cc(C(=O)Nc4ccc(Cl)cc4)c(Cl)cc3SCc3ccccc3)n2)cc1` [Compound 47, 4-Benzylthio-2-chloro-N-(4-chlorophenyl)-5-{N-[5-(4-methoxyphenyl)-1,2,4-triazin-3-yl]sulfamoyl}benzamide], the concentration for half-maximal inhibition (IC50) was 75 ± 5 µM in the data set on HCT-116 (colon cancer) (Homo sapiens, HCT-116, 72 h); 78 ± 3 µM with MCF-7 (breast cancer); 79 ± 1 µM with HeLa (cervical cancer) (Homo sapiens, 72 h). Further, the half-life at 10 μM in data set [1] (setting [3]) turned out to be 17.5 min.

As for `COc1ccc(-c2cnnc(NS(=O)(=O)c3cc(C)c(Cl)cc3SCc3ccc(C(F)(F)F)cc3)n2)cc1` [Compound 35, 4-Chloro-N-[5-(4-methoxyphenyl)-1,2,4-triazin-3-yl]-5-methyl-2-[4-(trifluoromethyl)benzylthio]benzene-sulfonamide], the half-maximal inhibitory concentration (IC50) with HCT-116, HeLa and MCF-7 is less than 71 µM; with HCT-116 (colon cancer) (Homo sapiens, HCT-116, 72 h), 68 ± 3 µM; with MCF-7 (breast cancer) it was 78 ± 2 µM; in the data set with HeLa (cervical cancer) (Homo sapiens, 72 h), 69 ± 1 µM. For the same compound, the half-life at 10 μM in data set [1] (setting [3]) stood at 42.4 min.

On to `Cc1cc(S(=O)(=O)Nc2nncc(-c3cccc(F)c3)n2)c(SCc2c(C)noc2C)cc1Cl` [Compound 39, 4-Chloro-2-[(3,5-dimethylizoxazol-4-yl)methylthio]-N-[5-(3-fluorophenyl)-1,2,4-triazin-3-yl]-5-methyl-benzenesulfonamide], for which the melting point (in general, the temperature, or range, at which the solid turns liquid) is 208 to 211 °C. This compound also registered a 50% inhibitory concentration (IC50) with HCT-116 (colon cancer) (Homo sapiens, HCT-116, 72 h) of 83 ± 2 µM. In the data set with MCF-7 (breast cancer), this compound had an IC50 of 95 ± 3 µM. In the data set on HeLa (cervical cancer) (Homo sapiens, 72 h), this compound displayed an IC50 of 93 ± 1 µM.

For `Cc1cc(S(=O)(=O)Nc2nncc(-c3cccc(F)c3)n2)c(SCc2cccc3ccccc23)cc1Cl` [Compound 36, 4-Chloro-N-[5-(3-fluorophenyl)-1,2,4-triazin-3-yl]-5-methyl-2-[(naphthalene-1-yl)methylthio]benzene-sulfonamide], the 50% inhibitory concentration (IC50) with HCT-116, HeLa and MCF-7 was less than 71 µM; in the data set on HCT-116 (colon cancer) (Homo sapiens, HCT-116, 72 h), 49 ± 2 µM; with MCF-7 (breast cancer) it was 96 ± 4 µM; with HeLa (cervical cancer) (Homo sapiens, 72 h), 55 ± 2 µM. Further, the half-life at 10 μM in data set [1] (setting [3]) turned out to be 13.9 min.

As to `Cc1cc(S(=O)(=O)Nc2nncc(-c3ccc(C(F)(F)F)cc3)n2)c(SCc2c(C)noc2C)cc1Cl` [Compound 40, 4-Chloro-2-[(3,5-dimethylizoxazol-4-yl)methylthio]-5-methyl-N-[5-(4-trifluoromethylphenyl)-1,2,4-triazin-3-yl]benzenesulfonamide], the IC50 is 77 ± 1 µM with HCT-116 (colon cancer) (Homo sapiens, HCT-116, 72 h); 98 ± 3 µM in the data set on MCF-7 (breast cancer); 51 to 85 µM in data set [2]; 85 ± 2 µM with HeLa (cervical cancer) (Homo sapiens, 72 h).

With `COc1ccc(-c2cnnc(NS(=O)(=O)c3cc(C)c(Cl)cc3SCc3ccccc3)n2)cc1OC` [Compound 31, 2-Benzylthio-4-chloro-N-[5-(3,4-dimethoxyphenyl)-1,2,4-triazin-3-yl]-5-methylbenzenesulfonamide], the IC50 in the data set with HCT-116 (colon cancer) (Homo sapiens, HCT-116, 72 h) was determined as 140 ± 7 µM; in the data set with MCF-7 (breast cancer) it was 77 ± 2 µM; in the data set on HeLa (cervical cancer) (Homo sapiens, 72 h), 150 ± 6 µM. Moreover, the half-life at 10 μM in data set [1] (setting [3]) amounted to 17.6 min.

In the case of `Cc1ccc(NC(=O)c2cc(S(=O)(=O)Nc3nncc(-c4ccc(C(F)(F)F)cc4)n3)c(SCc3ccccc3)cc2Cl)cc1` [Compound 52, 4-Benzylthio-2-chloro-N-(4-methylphenyl)-5-{N-[5-(4-trifluoromethylphenyl)-1,2,4-triazin-3-yl]sulfamoyl}-benzamide], the IC50 in the data set on HCT-116 (colon cancer) (Homo sapiens, HCT-116, 72 h) came out at 70 ± 2 µM; in the data set on MCF-7 (breast cancer), 69 ± 1 µM. Besides, in the data set with HeLa (cervical cancer) (Homo sapiens, HeLa, 72 h, 100 μM, read-out: Viability of cell line at 100 μM (HeLa)), the viability (as a rule, a per cent measure of how many cells are alive, often set against a control) at 100 µM is 100%. The half-life at 10 μM in data set [1] (setting [3]) came out at 26.5 min.

`Cc1cc(S(=O)(=O)Nc2nncc(-c3ccc(C(F)(F)F)cc3)n2)c(SCc2ccccc2)cc1Cl` [Compound 28, 2-Benzylthio-4-chloro-5-methyl-N-[5-(4-trifluoromethylphenyl)-1,2,4-triazin-3-yl]benzenesulfonamide]: the half-inhibitory concentration (IC50) worked out at 200 ± 4 µM with HCT-116 (colon cancer) (Homo sapiens, HCT-116, 72 h); 120 ± 5 µM in the data set with MCF-7 (breast cancer); 100 ± 6 µM with HeLa (cervical cancer) (Homo sapiens, 72 h). Moreover, the “IC50 toward HeLa as well as HCT-116” value in data set [2] is “loss of activity”.

In the case of `Cc1cc(S(=O)(=O)Nc2nncc(-c3ccc(C(F)(F)F)cc3)n2)c(SCc2ccc(C(F)(F)F)cc2)cc1Cl` [Compound 34, 4-Chloro-5-methyl-2-[4-(trifluoromethyl)benzylthio]-N-[5-(4-trifluoromethylphenyl)-1,2,4-triazin-3-yl]-benzenesulfonamide], the half-maximal inhibitory concentration (IC50) in the data set with HCT-116, HeLa and MCF-7 was less than 71 µM; in the data set with HCT-116 (colon cancer) (Homo sapiens, HCT-116, 72 h), 51 ± 1 µM; with MCF-7 (breast cancer), 68 ± 3 µM; in data set [2], 51 to 85 µM; in the data set on HeLa (cervical cancer) (Homo sapiens, 72 h) it was 73 ± 1 µM. The half-life at 10 μM in data set [1] (setting [3]) is greater than 60 min; in data set [1] (pH 7.4, value in parentheses beside >60, beyond the 60 min incubation, human liver microsomes, NADPH, read-out: In Vitro Metabolic Half-Life t1/2 (min), value in parentheses), 154 min.

`COc1cccc(-c2cnnc(NS(=O)(=O)c3cc(C)c(Cl)cc3SCc3ccccc3)n2)c1` [Compound 30, 2-Benzylthio-4-chloro-N-[5-(3-methoxyphenyl)-1,2,4-triazin-3-yl]5-methylbenzenesulfonamide]: the half-inhibitory concentration (IC50) stood at 85 ± 2 µM in the data set with HCT-116 (colon cancer) (Homo sapiens, HCT-116, 72 h); 67 ± 1 µM in the data set with MCF-7 (breast cancer); 90 ± 4 µM with HeLa (cervical cancer) (Homo sapiens, 72 h). Also, in data set [1] (setting [3]), the half-life at 10 μM stood at 24.9 min.
